The values that follow are results of earlier work, collected in patent US5380533A, “Gastroresistant pharmaceutical formulations for oral administration containing bile acids” (Alfa Wassermann S.p.A., priority 1991, dated 1995).

SMILES strings stand for the structures. Values after ≈ are worked out from the molar mass of the structure shown.

For data set [1] the following is noted: pH units.
For data set [2] the following is noted: after having crossed unabsorbed and undissolved the stomach.
For data set [3] the following is noted: intestinal pH below 8.4; intestinal bacterial flora.
The conditions of data set [4]: free bile acid.

Consider `C[C@H](CCC(=O)O)[C@H]1CC[C@H]2[C@@H]3[C@@H](O)C[C@@H]4C[C@H](O)CC[C@]4(C)[C@H]3CC[C@]12C` [ursodeoxycholic acid], for which, in data set [1], the “pH at which complete solubilization takes place” value was 8.47. Besides, in data set [2], the “dissolution in the intestine” value was “dissolve very slowly in the intestine”. The “fate of a portion at lower values of intestinal pH” value in data set [3] is “is not absorbed and undergoes a biotransformation to lithocholic acid”. In addition, the water solubility in data set [4] is 53 µM (≈ 20.8 µg/mL).
